Data from BigSolDB 2.1.

CO/N=C(/C(=O)N[C@@H]1C(=O)N2C(C(=O)O)=C(COC(N)=O)CS[C@H]12)c1ccco1
solubility (mole fraction)
Conditions | 278.5 K | 283.4 K | 288.3 K | 293.3 K | 298.3 K | 303.5 K | 308.3 K | 313.4 K
in acetone | 0.00362 | 0.0036 | 0.00355 | 0.00342 | 0.00337 | 0.00331 | 0.00327 | 0.00324
in ethanol | 0.00019 | 0.00022 | 0.00028 | 0.00032 | 0.00037 | 0.00052 | 0.00056 | 0.00061
in isopropanol | 6e-05 | 9e-05 | 0.00011 | 0.00012 | 0.00012 | 0.00015 | 0.00027 | 0.00032
in water | 3e-05 | 4e-05 | 4e-05 | 6e-05 | 7e-05 | 0.00012 | 0.00022 | 0.00026
